{
  "source": "ChEMBL document CHEMBL2424559",
  "about": "“Design, synthesis and antitubercular evaluation of novel 2-substituted-3H-benzofuro benzofurans via palladium-copper catalysed Sonagashira coupling reaction” (Bioorg Med Chem Lett, 2013)",
  "key": {"[1]": {"assay": "Lipophilicity, log P of the compound", "format": "physicochemical", "settings": "octanol/water"}, "[2]": {"test_system": "Mycobacterium tuberculosis", "assay": "microbe, parasite or virus in culture", "settings": "H37Rv ATCC 27294, 672 h", "description": "Antimycobacterial activity against Mycobacterium tuberculosis H37Rv ATCC 27294 after 28 days by agar dilution method"}, "[3]": {"assay": "Cytotoxicity against HEK293T cells at 50 ug/ml after 72 hrs by MTT assay", "format": "cell-based, HEK-293T", "settings": "human, read-out: INH"}, "[4]": {"assay": "Therapeutic index, ratio of inhibition of HEK293T cells to MIC for Mycobacterium tuberculosis H37Rv ATCC 27294", "format": "cell-based, HEK-293T", "settings": "human, read-out: TI"}},
  "data": [
    {"smiles": "Cc1ccc(-c2cc3c(ccc4oc5ccccc5c43)o2)cc1", "values": [
      {"measurement": "logP", "setting": "[1]", "result": 4.53},
      {"measurement": "MIC", "setting": "[2]", "result": 6.25, "unit": "µg/mL"},
      {"measurement": "cytotoxicity at 72 h, 50 ug/ml", "setting": "[3]", "result": 21.6, "unit": "%"}
    ]},
    {"smiles": "FC(F)(F)Oc1ccc(-c2cc3c(ccc4oc5ccccc5c43)o2)cc1", "values": [
      {"measurement": "logP", "setting": "[1]", "result": 5.57},
      {"measurement": "MIC", "setting": "[2]", "result": 50, "unit": "µg/mL"},
      {"measurement": "cytotoxicity at 72 h, 50 ug/ml", "setting": "[3]", "result": 72.1, "unit": "%"}
    ]},
    {"smiles": "CCCCCc1ccc(-c2cc3c(ccc4oc5ccccc5c43)o2)cc1", "values": [
      {"measurement": "logP", "setting": "[1]", "result": 5.78},
      {"measurement": "MIC", "setting": "[2]", "result": 12.5, "unit": "µg/mL"},
      {"measurement": "cytotoxicity at 72 h, 50 ug/ml", "setting": "[3]", "result": 40.2, "unit": "%"}
    ]},
    {"smiles": "c1ccc2c(c1)oc1ccc3oc(-c4ccsc4)cc3c12", "values": [
      {"measurement": "logP", "setting": "[1]", "result": 3.97},
      {"measurement": "MIC", "setting": "[2]", "result": 50, "unit": "µg/mL"},
      {"measurement": "cytotoxicity at 72 h, 50 ug/ml", "setting": "[3]", "result": 23.1, "unit": "%"}
    ]},
    {"smiles": "NNC(=O)c1ccncc1", "note": "[ISONIAZID]", "values": [
      {"measurement": "MIC", "setting": "[2]", "result": 0.1, "unit": "µg/mL"}
    ]},
    {"smiles": "c1ccc(-c2cc3c(ccc4oc5ccccc5c43)o2)cc1", "values": [
      {"measurement": "logP", "setting": "[1]", "result": 4.04},
      {"measurement": "MIC", "setting": "[2]", "result": 6.25, "unit": "µg/mL"},
      {"measurement": "cytotoxicity at 72 h, 50 ug/ml", "setting": "[3]", "result": 32.1, "unit": "%"}
    ]},
    {"smiles": "CCCCCCc1cc2c(ccc3oc4ccccc4c32)o1", "values": [
      {"measurement": "logP", "setting": "[1]", "result": 4.8},
      {"measurement": "MIC", "setting": "[2]", "result": 6.25, "unit": "µg/mL"},
      {"measurement": "cytotoxicity at 72 h, 50 ug/ml", "setting": "[3]", "result": 32.1, "unit": "%"}
    ]},
    {"smiles": "Fc1ccc(-c2cc3c(ccc4oc5ccccc5c43)o2)c(F)c1", "values": [
      {"measurement": "logP", "setting": "[1]", "result": 4.36},
      {"measurement": "MIC", "setting": "[2]", "result": 50, "unit": "µg/mL"},
      {"measurement": "cytotoxicity at 72 h, 50 ug/ml", "setting": "[3]", "result": 34.1, "unit": "%"}
    ]},
    {"smiles": "CC[C@@H](CO)NCCN[C@@H](CC)CO", "note": "[ETHAMBUTOL]", "values": [
      {"measurement": "MIC", "setting": "[2]", "result": 3.13, "unit": "µg/mL"}
    ]},
    {"smiles": "COc1ccc(-c2cc3c(ccc4oc5ccccc5c43)o2)c(C)c1", "values": [
      {"measurement": "logP", "setting": "[1]", "result": 4.4},
      {"measurement": "MIC", "setting": "[2]", "result": 3.12, "unit": "µg/mL"},
      {"measurement": "selectivity ratio", "setting": "[4]", "result": "> 10"},
      {"measurement": "cytotoxicity at 72 h, 50 ug/ml", "setting": "[3]", "result": 32.1, "unit": "%"}
    ]},
    {"smiles": "NC(=O)c1cnccn1", "note": "[PYRAZINAMIDE]", "values": [
      {"measurement": "MIC", "setting": "[2]", "result": 50, "unit": "µg/mL"}
    ]},
    {"smiles": "Cc1cccc(-c2cc3c(ccc4oc5ccccc5c43)o2)c1", "values": [
      {"measurement": "logP", "setting": "[1]", "result": 4.53},
      {"measurement": "MIC", "setting": "[2]", "result": 12.5, "unit": "µg/mL"},
      {"measurement": "cytotoxicity at 72 h, 50 ug/ml", "setting": "[3]", "result": 56.8, "unit": "%"}
    ]},
    {"smiles": "COc1ccc(-c2cc3c(ccc4oc5ccccc5c43)o2)cc1", "values": [
      {"measurement": "logP", "setting": "[1]", "result": 3.92},
      {"measurement": "MIC", "setting": "[2]", "result": 50, "unit": "µg/mL"},
      {"measurement": "cytotoxicity at 72 h, 50 ug/ml", "setting": "[3]", "result": 13.8, "unit": "%"}
    ]}
  ]
}
